What was measured:
[1] = First acid dissociation constant of the added acid; assay type: physicochemical; settings: in water at 25°C
Description: The organic acid preferably has a first acid dissociation constant of preferably 4.0 to 5.0, more preferably 4.1 to 4.8, and further preferably 4.2 to 4.5. […] In the present invention, the term "first acid dissociation constant" indicates an acid dissociation constant in water at 25°C and is a value measured, for example, by acid-base titration, absorption spectroscopy, or capillary electrophoresis.

[2] = Evaluation of solubility of acids in glycerol (visual); assay type: physicochemical; settings: for Solubility (-): 10 mg of acid in 1,000 mg of glycerol at 25°C, visual, 5 grades
Description: The organic acid is preferably soluble in the aerosol former at 25°C. […] When the resulting solution is colorless and transparent or the majority of the organic acid added is invisible due to dissolution, the organic acid is determined as "soluble." Since a solution of a polyol, such as glycerol, is difficult to measure at room temperature due to the high viscosity, it is desirable to observe the solution after appropriately dissolving once at a high temperature, followed by cooling to room temperature.
The evaluation was made by 5 grades from 1 of "no dissolution" to 5 of "complete dissolution." Herein, a grade of 3 or higher was regarded as "soluble."

SMILES	First acid dissociation constant (-) [1]	Solubility (-) [2]	Solubility in glycerol as an aerosol former (in words) ([2]; 25°C)
O=C(O)CCCCC(=O)O [Adipic acid]	4.42	–	–
CC(=O)C(=O)O [Pyruvic acid]	2.50	5	–
CCCCCCCCCCCCCCCCCCC(=O)O [Nonadecanoic acid]	5.10	1	–
CC(=O)CCC(=O)O [Levulinic acid]	4.44	5	soluble
